Measured values published in patent publication US20070259439A1, “Determination of antibiotic concentration in bone” (Wyeth, priority 2006, published 2007).
Marks after values point to notes of the source that are not given here.

Test: in vivo
Conditions: rat
Experimental: Absolute extraction recovery (AbsER): Bone is a heterogeneous tissue and, unlike with a plasma or urine method validation, the extraction recovery cannot be determined with a drug spiked rat bone QC sample. Therefore, it is necessary to measure a virtual known amount of drug in an incurred rat bone sample to determine the absolute extraction recovery. Using combusted IncRB samples from Group B (rats administered radio labeled ^14C-tigecycline), the amount of labeled drug in bone was measured using a liquid scintillation counter. Four aliquots of IncRB Group B (0.1 grams) were accurately weighed, placed into combustion cones, and allowed to air dry for approximately 3 days. These 4 samples were then oxidized in a Model 307/Oximate 80 sample oxidizer, using Carbosorb® E (7 ml) as a trapping agent and PermalFluor® ET (10 ml) as a scintillant. […] The oxidized samples were counted in a Packard (Perkin Elmer) liquid scintillation counter (LSC) using a toluene standard curve. The ng-equiv/ml concentrations were calculated using specific activity of the dosing solution.
In parallel, five aliquots of IncRB Group B (0.1 gram) were weighed. […]
The absolute extraction recovery was determined using the following equation: […]
[total amount of tigecycline per gram of bone (Group B, determined by LC/MS/MS)]/[total amount of tigecycline per gram of bone (Group B, after combustion as determined by LSC)]×100

For CN(C)c1cc(NC(=O)CNC(C)(C)C)c(O)c2c1C[C@H]1C[C@H]3[C@H](N(C)C)C(O)=C(C(N)=O)C(=O)[C@@]3(O)C(O)=C1C2=O [tigecycline, Tigecycline], the concentration at 4 h was 3190 ng/g and the Measured conc. (4 h) was 4137^a ng-equivalent/g of bone.
